Laboratory results taken from patent US9951064B2, “Azaindazole compounds as inhibitors of T790M containing EGFR mutants” (Genentech, Inc., priority 2013, dated 2018).
pEC50, pKi: −log10 of the molar value.

Tests used:
EGFR T790M L858R = target: T1, EGFR T790M L858R (Homo sapiens, UniProt P00533, L858R/T790M); assay: EGFR T790M L858R biochemical assay (Caliper mobility shift); conditions: 5 μM ATP; apparent Ki (Morrison fit) converted by Cheng-Prusoff, Km of ATP 1.3 μM
T1 construct: purchased Life Technologies PV4879
Method in brief: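 Caliper mobility-shift read-out, electrophoretic separation of substrate from product, after a 30-minute kinase reaction at 22 °C. EDTA at 80 mM terminates each reaction.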

EGFR del746-750 T790M = target: T2, EGFR del746-750 T790M (Homo sapiens, UniProt P00533, DEL746-750/T790M); assay: EGFR del746-750 T790M biochemical assay (Caliper mobility shift); conditions: 5 μM ATP; apparent Ki (Morrison fit) converted by Cheng-Prusoff, Km of ATP 2.1 μM; read-out: EGFR(T790M/d746-750) Ki
T2 construct: purchased Carna Biosciences 08-528
Method in brief: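 Caliper mobility-shift read-out, with product electrophoretically resolved from substrate and measured. Reactions were quenched with 80 mM EDTA after 30 min at 22 °C.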

[1] = target: T3, phosphor-EGFR in H1975(L585R/T790M) mutant EGFR expressing cells (Homo sapiens, UniProt P00533, L858R/T790M); assay: H1975 pEGFR MSD cellular assay; type: cell-based; conditions: NCI-H1975 cells, serum starved, 1 hour compound incubation, pEGFR Tyr1068 MSD; read-out: HI975 pEGFR EC50
T3 construct: host or cells: NCI-H1975
Method in brief: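 Phospho-EGFR read by MSD electrochemiluminescence: capture with anti-pEGFR antibody (overnight, 4° C), detection with SULFO-TAG anti-total EGFR (1 hour, room temperature). Before lysis, H1975 cells starved of serum overnight got compound for 1 hour at 37° C, 0.5% DMSO final. EC50 via four-parameter logistic regression of percent inhibition.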

[2] = test system: H1975 (EGFR T790M/L858R) cell proliferation; assay: H1975 proliferation assay (Cell Titer-Glo); type: cell-based; conditions: Homo sapiens, NCI-H1975, 72 h, NCI-H1975 cells, 72 hour incubation, read-out: H1975 antiproliferative EC50
Description: H1975 Proliferation Assays
All cell culture reagents were purchased from Invitrogen/Gibco. Cells are cultured at 37° C. at 5% CO2 and split as recommended by ATCC.

T2 sequence (P00533 with tags, fused parts or gaps DEL746-750/T790M limits assumed): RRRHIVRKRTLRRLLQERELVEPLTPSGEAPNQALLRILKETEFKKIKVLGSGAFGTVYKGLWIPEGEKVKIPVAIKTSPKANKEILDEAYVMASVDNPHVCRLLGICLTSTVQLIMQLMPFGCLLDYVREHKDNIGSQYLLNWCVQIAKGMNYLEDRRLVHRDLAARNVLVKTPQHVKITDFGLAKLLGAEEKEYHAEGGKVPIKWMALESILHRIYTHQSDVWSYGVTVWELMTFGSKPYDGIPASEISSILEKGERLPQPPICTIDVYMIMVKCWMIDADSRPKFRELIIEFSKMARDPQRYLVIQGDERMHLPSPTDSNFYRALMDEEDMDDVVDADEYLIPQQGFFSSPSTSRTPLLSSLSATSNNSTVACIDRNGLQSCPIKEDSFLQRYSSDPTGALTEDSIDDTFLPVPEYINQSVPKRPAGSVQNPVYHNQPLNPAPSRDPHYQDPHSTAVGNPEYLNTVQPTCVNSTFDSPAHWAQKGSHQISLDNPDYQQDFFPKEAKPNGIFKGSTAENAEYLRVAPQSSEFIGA
T3 sequence (P00533 25-1210 T790M/L858R): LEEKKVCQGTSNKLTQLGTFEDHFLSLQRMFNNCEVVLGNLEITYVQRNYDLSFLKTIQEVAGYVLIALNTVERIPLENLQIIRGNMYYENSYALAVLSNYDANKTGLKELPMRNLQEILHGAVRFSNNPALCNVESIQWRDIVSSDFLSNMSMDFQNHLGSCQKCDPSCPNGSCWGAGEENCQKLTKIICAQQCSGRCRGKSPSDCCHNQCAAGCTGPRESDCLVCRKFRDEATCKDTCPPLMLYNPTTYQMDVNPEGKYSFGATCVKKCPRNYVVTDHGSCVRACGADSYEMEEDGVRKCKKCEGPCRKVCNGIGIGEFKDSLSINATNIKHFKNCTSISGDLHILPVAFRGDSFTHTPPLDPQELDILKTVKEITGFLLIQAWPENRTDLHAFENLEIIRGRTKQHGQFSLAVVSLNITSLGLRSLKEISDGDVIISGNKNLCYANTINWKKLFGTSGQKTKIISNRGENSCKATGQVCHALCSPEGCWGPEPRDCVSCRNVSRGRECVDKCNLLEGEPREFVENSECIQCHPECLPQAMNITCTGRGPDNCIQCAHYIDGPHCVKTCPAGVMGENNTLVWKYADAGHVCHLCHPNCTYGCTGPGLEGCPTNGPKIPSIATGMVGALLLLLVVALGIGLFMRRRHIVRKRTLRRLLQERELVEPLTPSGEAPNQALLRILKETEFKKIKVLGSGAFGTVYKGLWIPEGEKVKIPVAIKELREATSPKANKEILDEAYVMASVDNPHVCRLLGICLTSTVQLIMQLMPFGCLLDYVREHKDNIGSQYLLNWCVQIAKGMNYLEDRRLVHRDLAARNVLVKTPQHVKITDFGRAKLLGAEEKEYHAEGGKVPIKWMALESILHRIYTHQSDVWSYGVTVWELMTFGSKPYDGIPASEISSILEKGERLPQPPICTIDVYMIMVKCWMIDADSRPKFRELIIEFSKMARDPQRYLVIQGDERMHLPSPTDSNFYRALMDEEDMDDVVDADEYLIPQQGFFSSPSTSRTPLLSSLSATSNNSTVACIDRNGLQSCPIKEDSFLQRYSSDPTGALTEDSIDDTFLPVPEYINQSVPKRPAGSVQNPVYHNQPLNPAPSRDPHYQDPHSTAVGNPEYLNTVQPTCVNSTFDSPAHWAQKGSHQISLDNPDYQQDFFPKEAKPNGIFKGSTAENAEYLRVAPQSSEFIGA
T1 sequence (P00533 25-1210 T790M/L858R): as above

| SMILES | pKi (EGFR T790M L858R) | pKi (EGFR del746-750 T790M) | pEC50 [1] | pEC50 [2] |
| --- | --- | --- | --- | --- |
| CC(C)n1nc(N2CCO[C@H](CO)C2)c2cnc(Nc3ccnc(N4CC[C@H](O)[C@H](F)C4)n3)cc21 [Example 132, cis-3-Fluoro-1-(4-(3-((S)-2-(hydroxymethyl)morpholino)-1-isopropyl-1H-pyrazolo[4,3-c]pyridin-6-ylamino)pyrimidin-2-yl)piperidin-4-ol] | 8.31 | 7.84 | 5.85 | < 5.00 |
| CC(C)n1nc(N2CC(C#N)CC2=O)c2cnc(Nc3ccnc(N4CCC(C)(O)CC4)n3)cc21 (centres unmarked) [Example 137, 1-(6-(2-(4-Hydroxy-4-methylpiperidin-1-yl)pyrimidin-4-ylamino)-1-isopropyl-1H-pyrazolo[4,3-c]pyridin-3-yl)-5-oxopyrrolidine-3-carbonitrile] | 8.00 | 7.57 | 6.15 | 5.96 |
| CCC(C)n1nc(N2CC[C@H](C(N)=O)C2)c2cnc(Nc3ccnc(N4CCC(C)(O)CC4)n3)cc21 (stereo partly drawn) [Example 144, (3S)-1-(1-sec-Butyl-6-(2-(4-hydroxy-4-methylpiperidin-1-yl)pyrimidin-4-ylamino)-1H-pyrazolo[4,3-c]pyridin-3-yl)pyrrolidine-3-carboxamide] | 8.74 | 8.68 | 6.03 | 5.66 |
| CC(C)n1nc(N2CC(C(C)(C)C#N)C2)c2cnc(Nc3ccnc(-c4cnn(S(=O)(=O)C5CC5)c4)n3)cc21 [Example 153, 2-(1-(6-(2-(1-(Cyclopropylsulfonyl)-1H-pyrazol-4-yl)pyrimidin-4-ylamino)-1-isopropyl-1H-pyrazolo[4,3-c]pyridin-3-yl)azetidin-3-yl)-2-methylpropanenitrile] | 8.68 | 8.72 | 6.88 | 5.86 |
| CC(C)n1nc(N2CC(F)(F)C2)c2cnc(Nc3ccnc(-c4cnn(S(=O)(=O)C5CC5)c4)n3)cc21 [Example 154, N-(2-(1-(Cyclopropylsulfonyl)-1H-pyrazol-4-yl)pyrimidin-4-yl)-3-(3,3-difluoroazetidin-1-yl)-1-isopropyl-1H-pyrazolo[4,3-c]pyridin-6-amine] | 8.55 | 8.54 | 7.09 | 6.51 |
| CC(C)n1nc(N2CCC(C)(C(N)=O)C2)c2cnc(Nc3ccnc(N4CCC(C)(O)CC4)n3)cc21 (centres unmarked) [Example 157, 1-(6-(2-(4-Hydroxy-4-methylpiperidin-1-yl)pyrimidin-4-ylamino)-1-isopropyl-1H-pyrazolo[4,3-c]pyridin-3-yl)-3-methylpyrrolidine-3-carboxamide] | 8.59 | 8.31 | 5.88 | 5.54 |
| CC(C)n1nc(N2CC[C@@H](N)C2=O)c2cnc(Nc3ccnc(N4CCC(C)(O)CC4)n3)cc21 [Example 158, (R)-3-Amino-1-(6-(2-(4-hydroxy-4-methylpiperidin-1-yl)pyrimidin-4-ylamino)-1-isopropyl-1H-pyrazolo[4,3-c]pyridin-3-yl)pyrrolidin-2-one] | 7.73 | 7.29 | 5.89 | 5.09 |
| CC(C)n1nc(N2CC3(C2)CS(=O)(=O)C3)c2cnc(Nc3ccnc(N4CCC(C)(O)CC4)n3)cc21 [Example 160, 6-(6-((2-(4-Hydroxy-4-methylpiperidin-1-yl)pyrimidin-4-yl)amino)-1-isopropyl-1H-pyrazolo[4,3-c]pyridin-3-yl)-2-thia-6-azaspiro[3.3]heptane 2,2-dioxide] | 8.29 | 8.01 | 6.02 | 5.51 |

Other lines, results leading:

| pKi (EGFR T790M L858R) | pKi (EGFR del746-750 T790M) | pEC50 [1] | pEC50 [2] | SMILES |
| --- | --- | --- | --- | --- |
| 8.34 | 7.71 | 5.85 | 5.41 | CC(C)n1nc(N2CC3(C2)C[S+]([O-])C3)c2cnc(Nc3ccnc(N4CCC(C)(O)CC4)n3)cc21 [Example 138, 6-(6-((2-(4-Hydroxy-4-methylpiperidin-1-yl)pyrimidin-4-yl)amino)-1-isopropyl-1H-pyrazolo[4,3-c]pyridin-3-yl)-2-thia-6-azaspiro[3.3]heptane 2-oxide] |
| 8.15 | 7.74 | 5.22 | < 5.00 | CC(C)n1nc(NCCC2OCC(N)CO2)c2cnc(Nc3ccnc(N4CCC(C)(O)CC4)n3)cc21 (centres unmarked) [Example 139, 1-(4-(3-(2-(5-Amino-1,3-dioxan-2-yl)ethylamino)-1-isopropyl-1H-pyrazol[4,3-c]pyridin-6-ylamino)pyrimidin-2-yl)-4-methylpiperidin-4-ol] |
| 8.54 | 7.95 | 6.66 | 6.05 | CC(n1nc(N2CC[C@@H](O)C2)c2cnc(Nc3ccnc(N4CCC(C)(O)CC4)n3)cc21)C(F)(F)F (stereo partly drawn) [Example 143, 1-(4-(3-((R)-3-Hydroxypyrrolidin-1-yl)-1-(1,1,1-trifluoropropan-2-yl)-1H-pyrazolo[4,3-c]pyridin-6-ylamino)pyrimidin-2-yl)-4-methylpiperidin-4-ol] |
| 8.85 | 8.80 | 6.04 | 5.14 | CCC(C)n1nc(N2CC[C@@H](C(N)=O)C2)c2cnc(Nc3ccnc(N4CCC(C)(O)CC4)n3)cc21 (stereo partly drawn) [Example 145, (3R)-1-(1-sec-Butyl-6-(2-(4-hydroxy-4-methylpiperidin-1-yl)pyrimidin-4-ylamino)-1H-pyrazolo[4,3-c]pyridin-3-yl)pyrrolidine-3-carboxamide] |
| 8.60 | 8.31 | 6.56 | 5.79 | CCC(C)n1nc(N2CC(F)(F)C2)c2cnc(Nc3ccnc(N4CCC(C)(O)CC4)n3)cc21 (centres unmarked) [Example 146, 1-(4-(1-sec-Butyl-3-(3,3-difluoroazetidin-1-yl)-1H-pyrazolo[4,3-c]pyridin-6-ylamino)pyrimidin-2-yl)-4-methylpiperidin-4-ol] |
| 8.68 | 8.92 | 7.28 | 6.37 | CC(C)n1nc(N2CC(C(C)(C)O)C2)c2cnc(Nc3ccnc(-c4cnn(S(=O)(=O)C5CC5)c4)n3)cc21 [Example 149, 2-(1-(6-(2-(1-(Cyclopropylsulfonyl)-1H-pyrazol-4-yl)pyrimidin-4-ylamino)-1-isopropyl-1H-pyrazolo[4,3-c]pyridin-3-yl)azetidin-3-yl)propan-2-ol] |
| 8.31 | 8.44 | 6.61 | 6.12 | CC(C)n1nc(N2CCCNC2=O)c2cnc(Nc3ccnc(-c4cnn(S(=O)(=O)C5CC5)c4)n3)cc21 [Example 150, 3-(6-(2-(1-(Cyclopropylsulfonyl)-1H-pyrazol-4-yl)pyrimidin-4-ylamino)-1-isopropyl-1H-pyrazolo[4,3-c]pyridin-3-yl)-tetrahydropyrimidin-2(1H)-one] |
| 8.06 | 8.20 | 6.44 | 6.03 | CCN1CCN(c2nn(C(C)C)c3cc(Nc4ccnc(-c5cnn(S(=O)(=O)C6CC6)c5)n4)ncc23)C1=O [Example 151, 1-(6-(2-(1-(Cyclopropylsulfonyl)-1H-pyrazol-4-yl)pyrimidin-4-ylamino)-1-isopropyl-1H-pyrazolo[4,3-c]pyridin-3-yl)-3-ethylimidazolidin-2-one] |
| 9.00 | 9.05 | 7.54 | 6.84 | CC(C)n1nc(N2CC(C#N)C2)c2cnc(Nc3ccnc(-c4cnn(S(=O)(=O)C5CC5)c4)n3)cc21 [Example 155, 1-(6-(2-(1-(Cyclopropylsulfonyl)-1H-pyrazol-4-yl)pyrimidin-4-ylamino)-1-isopropyl-1H-pyrazolo[4,3-c]pyridin-3-yl)azetidine-3-carbonitrile] |
| 8.96 | 9.10 | 7.41 | 6.79 | CC(C)n1nc(N2CCC(C(=O)N(C)C)C2)c2cnc(Nc3ccnc(-c4cnn(S(=O)(=O)C5CC5)c4)n3)cc21 (centres unmarked) [Example 156, 1-(6-(2-(1-(Cyclopropylsulfonyl)-1H-pyrazol-4-yl)pyrimidin-4-ylamino)-1-isopropyl-1H-pyrazolo[4,3-c]pyridin-3-yl)N,N-dimethylpyrrolidine-3-carboxamide] |
| 7.94 | 7.55 | 5.96 | 5.01 | CC(C)n1nc(N2CC[C@H](N)C2=O)c2cnc(Nc3ccnc(N4CCC(C)(O)CC4)n3)cc21 [Example 159, (S)-3-Amino-1-(6-(2-(4-hydroxy-4-methylpiperidin-1-yl)pyrimidin-4-ylamino)-1-isopropyl-1H-pyrazolo[4,3-c]pyridin-3-yl)pyrrolidin-2-one] |
| 9.15 | 9.22 | 7.27 | 6.19 | CNC(=O)C1CN(c2nn(C(C)C)c3cc(Nc4ccnc(-c5cnn(S(=O)(=O)C6CC6)c5)n4)ncc23)C1 [Example 161, 1-(6-(2-(1-(Cyclopropylsulfonyl)-1H-pyrazol-4-yl)pyrimidin-4-ylamino)-1-isopropyl-1H-pyrazolo[4,3-c]pyridin-3-yl)-N-methylazetidine-3-carboxamide] |
